# Assay results published in PMC13198257, “An aerosolized dual-action autotaxin inhibitor-PPARγ agonist for the treatment of pulmonary fibrosis” (Cell Reports Medicine, 2026).
# Columns and labels:
# [1] = Fast-track PK of compound 5: plasma exposure after i.v., i.p., inhalation, per os; assay type: in vivo, mice; details: 30 mg/kg, 1 and 3 h post-dose, versus i.v.
# [2] = tested on: BLM-induced fibrotic mouse PCLSs; test: Fibrotic mouse precision-cut lung slices (PCLS); assay type: cell-based; details: 30 μΜ, 72 h
# Method: Fourteen days after administration, mice were euthanized and lungs were perfused with PBS. Lungs were subsequently inflated through the trachea with pre-warmed (40-42 °C) low melting-point agarose. Following agarose solidification, the left lateral lobe was excised and sectioned into 300μm-thick slices using a vibratome machine. Lung slices were placed in 12- or 24-well culture plates containing complete DMEM supplemented with 1% penicillin/streptomycin, and 0.1% amphotericin B, and maintained at 37 °C, 5% CO2 and ≥95% relative humidity. After an overnight equilibration period, slices were treated with either GLPG-1690 (30μM) or compound 5 (30μM) for 72 h. Culture medium was refreshed every 24 h throughout the treatment period. For downstream gene expression analysis, three slices were pooled per sample for RNA extraction. Control PCLS were generated from saline-treated mice. […] Fluorophore-conjugated secondary antibody (1:500) was applied for 1 h at room temperature, and nuclei were counterstained with DAPI. Brightfield and fluorescence imaging were performed using the Olympus VS200 slide scanner.
# LPA levels = LPA levels in BALF and plasma of BLM mice after inhaled EL244 (MS/MS); assay type: in vivo
# Method: Plasma (50μL), BALF (300 μL) or homogenized lung tissue (10–50 mg) were mixed with ice-cold PBS spiked with the internal standard mixture (LPA-d9, Cayman) in a glass tube (total final volume 1mL). 2 mL of ice-cold chloroform and 1 mL of methanol was added in each sample, following by vortexing for 1 min and then centrifugation at 4°C for 5 min at 4000 g. The lower transparent organic phase (chloroform phase-contains the neutral lipids) was collected in a glass tube. The remaining aqueous phase (upper phase) was left on ice for 10 min and acidified (pH 3–4) with Formic Acid 10% in water. Then 1.5 mL chloroform was added followed by thorough mixing for 1 min and centrifugation at 4°C for 5 min at 2000 g. The lower organic phase was collected and neutralized to pH 6–7. The neutralized organic phase from the acid extraction were evaporated to dryness. After evaporation we redissolve in water/methanol (1:9) with 0.1% formic acid and run in the mass spec. All MS quantitation lipid standards were purchased from Cayman unless otherwise mentioned. All LPA species analyzed in this study were quantified using the multiple reaction monitoring (MRM) scanning method on an Waters-QQQ mass spectrometer. All data were acquired and analyzed using the Waters data analysis software. The LC separation was achieved using a Gemini 5U C18 column (Phenomenex, 5 μm, 50 × 4.6 mm) coupled to a Gemini guard column (Phenomenex, 4 × 3 mm). The LC solvents were as follows: buffer A, 85% CAN, 5% MeOH +0.1% formic acid +10% 10 mM ammonium formate buffer pH5; buffer B, 95:5 (v/v) ACN/MeOH +0.1% formic acid. A typical LC-run was 35 min, with the following solvent run sequence post injection: 0.35 mL/min 5% B for 5 min, linear gradient of B from 0 to 95% over 25 min, and re-equilibration with 0.5 mL/min of 5% B for 5 min. […] All the endogenous lipid species were quantified by measuring the area under the curve in comparison to the respective internal standard, and then normalized to the total protein content of the […] tissue. The following table presents the MRM used for LPA quantification.
# human PCLS = test: Human PCLS with pro-fibrotic cocktail; assay type: cell-based; details: 25 and 50 μΜ
# Method: hPCLS were prepared from tumour-free lung tissue obtained during surgical resection from a patient undergoing surgery for pulmonary adenocarcinoma (Subject ID: LB26-0020). The biopsy was provided by the Biobanque CRB-Tumorothèque de Nice, Biobanque CHU de Nice (BB-0033-00025; approved protocol # CSE 2022-EV34), collected after written informed consent, in accordance with the Declaration of Helsinki and applicable French regulations for human biological materials.
# The lung biopsy was rinsed thoroughly with Hank’s balanced salt solution (HBSS, Sigma-Aldrich) supplemented with antibiotics. The tissue was then infused with a 2.5% low-melting agarose solution prepared in DMEM/F-10 containing antibiotics, maintained at 40°C, and rapidly cooled to solidify the agarose. 8 mm tissue punches were then excised and sectioned into 300 μm-thick slices using the Compresstome VF-300-0Z (Precisionary Instruments). Each hPCLS was transferred into an individual well of a 24-well plate containing 500 μL of culture medium supplemented with 1× antibiotic–antimycotic solution (penicillin, streptomycin, amphotericin B), 50 μg/mL gentamicin, 1× insulin-transferrin-selenium (ITS) supplement, and 0.1% FBS. Slices were incubated at 37°C in a humidified atmosphere with 5% CO2. The culture medium was replaced after several hours.
# Fibrosis was induced by a pro-fibrotic cocktail (PFC; 5 ng/mL TGF-β1, […] PDGF-AB, 10 ng/mL TNF-a and 5 μM LPA 18:1), following a well-established protocol.[73] Individual PCLS were first incubated with the PFC for 48 h. After this initial exposure, the medium was renewed and PCLS were treated for an additional 72 h with either PFC alone or PFC supplemented with EL244 (25 μM or 50 μM). Untreated PCLS served as controls.
Compound,Plasma concentrations after i.p. and per os administration [1],Col1a1 mRNA expression [2],Fn1 mRNA expression [2],"Lung architecture, fibrotic lesions [2]",LPA species in BALF (LPA levels),Plasma LPA levels (LPA levels),Total LPA content in BALFs (LPA levels),Col1a1 and Acta2 mRNA expression (human PCLS),Development of fibrosis (histology) (human PCLS),PPARγ target gene expression (human PCLS)
"O=C1NC(=O)C(Cc2ccc(OCCN3CCN(C(=O)OCc4cc(Cl)cc(Cl)c4)CC3)cc2)S1 (stereo not shown) [Compound 5, 3,5-dichlorobenzyl4-(2-(4-((2,4-dioxothiazolidin-5-yl)methyl)phenoxy)ethyl)piperazine-1-carboxylate]",comparable to the respective i.v. concentrations,decreasing,decreasing,improved the lung architecture,,,,,,
"O=C1NC(=O)C(Cc2ccc(OCCC3CCN(C(=O)OCc4cc(Cl)cc(Cl)c4)CC3)cc2)S1 (stereo not shown) [EL244, 3,5-dichlorobenzyl 4-(2-(4-((2,4-dioxothiazolidin-5-yl)methyl)phenoxy)ethyl)piperidine-1-carboxylate]",,,,,"All LPA species, except for 18:0, were found to be reduced in the BALF",no modulation of plasma LPA levels was detected,found reduced,downregulation,prevented and/or attenuated the development of fibrosis,upregulated the expression of PPARγ target genes
